Data published in ChEMBL document CHEMBL4673353, “Switching a Xanthine Oxidase Inhibitor to a Dual-Target Antagonist of P2Y and P2Y as an Oral Antiplatelet Agent with a Wider Therapeutic Window in Rats than Ticagrelor” (J Med Chem, 2020).

Legend:
[1] = Prodrug conversion in male Sprague-Dawley rat assessed as 1-[(4-Cyanobenzyl)oxy]-2-(3-cyanophenyl)-4-methyl-1H-imidazole-5-carboxylic acid formation at 10 mg/kg, po measured at 10 mins by LC-MS analysis; type: ADME, organism-based; details: in vivo
[2] = Oral bioavailability in male Sprague-Dawley rat at 10 mg/kg administered as single dose by LC-MS analysis; type: ADME, organism-based; details: in vivo
[3] = Stability of compound in rabbit plasma assessed as compound degradation at 10 uM incubated up to 45 mins by HPLC analysis; type: ADME, cell-free, Oryctolagus cuniculus; details: 0.75 h
[4] = biological target: Xanthine dehydrogenase/oxidase (Bos taurus, UniProt P80457); assay: Inhibition of bovine xanthine oxidase assessed as reduction in uric acid formation at 10 uM using xanthine as substrate preincubated for 15 mins followed by substrate addition measured at 30 sec interval for upto 2 mins by spectrophotometric analysis relative to control; details: cattle, time 17 min
Xanthine dehydrogenase/oxidase, sequence (P80457 whole entry): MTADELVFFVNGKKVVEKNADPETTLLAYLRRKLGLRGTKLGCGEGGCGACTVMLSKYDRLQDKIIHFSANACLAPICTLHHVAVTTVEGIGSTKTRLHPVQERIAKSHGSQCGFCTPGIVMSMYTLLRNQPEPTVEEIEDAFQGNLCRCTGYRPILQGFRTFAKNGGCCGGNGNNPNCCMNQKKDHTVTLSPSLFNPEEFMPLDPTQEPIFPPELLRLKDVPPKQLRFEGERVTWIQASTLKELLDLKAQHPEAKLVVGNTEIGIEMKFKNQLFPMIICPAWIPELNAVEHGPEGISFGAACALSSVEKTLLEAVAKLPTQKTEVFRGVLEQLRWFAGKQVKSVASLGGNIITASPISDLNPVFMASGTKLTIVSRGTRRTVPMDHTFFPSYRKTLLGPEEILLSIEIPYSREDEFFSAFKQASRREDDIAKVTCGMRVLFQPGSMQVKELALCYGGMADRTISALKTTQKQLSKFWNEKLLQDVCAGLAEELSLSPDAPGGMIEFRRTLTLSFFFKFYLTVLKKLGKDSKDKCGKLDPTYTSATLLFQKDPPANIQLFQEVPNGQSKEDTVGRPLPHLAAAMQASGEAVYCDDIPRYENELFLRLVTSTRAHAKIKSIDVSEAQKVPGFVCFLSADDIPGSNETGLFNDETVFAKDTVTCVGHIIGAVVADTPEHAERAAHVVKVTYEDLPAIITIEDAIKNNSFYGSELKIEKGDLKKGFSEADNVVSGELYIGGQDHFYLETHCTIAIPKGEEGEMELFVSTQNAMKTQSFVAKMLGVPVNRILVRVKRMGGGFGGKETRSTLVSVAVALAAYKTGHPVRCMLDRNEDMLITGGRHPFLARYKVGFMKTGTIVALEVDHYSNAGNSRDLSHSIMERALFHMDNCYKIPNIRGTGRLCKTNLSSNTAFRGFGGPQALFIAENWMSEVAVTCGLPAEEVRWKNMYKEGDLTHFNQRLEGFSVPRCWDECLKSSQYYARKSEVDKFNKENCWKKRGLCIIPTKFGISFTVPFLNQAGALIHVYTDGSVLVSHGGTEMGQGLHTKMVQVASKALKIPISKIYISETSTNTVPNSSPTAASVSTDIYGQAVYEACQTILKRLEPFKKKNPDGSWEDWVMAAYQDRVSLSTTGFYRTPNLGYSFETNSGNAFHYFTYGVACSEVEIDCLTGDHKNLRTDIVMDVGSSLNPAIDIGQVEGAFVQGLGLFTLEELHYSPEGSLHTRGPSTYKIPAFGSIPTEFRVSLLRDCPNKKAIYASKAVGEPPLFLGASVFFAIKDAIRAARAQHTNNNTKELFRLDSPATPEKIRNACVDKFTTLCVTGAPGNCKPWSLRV

[5] = Stability of compound in rat plasma assessed as compound degradation at 10 uM incubated up to 45 mins by HPLC analysis; type: ADME, cell-free; details: 0.75 h
Cytochrome P450 2A6 = biological target: T1, Cytochrome P450 2A6 (Homo sapiens, UniProt P11509); assay: Inhibition of CYP2A6 in human liver microsomes using coumarin as substrate preincubated for 5 mins followed by NADPH generating system addition and measured after 120 mins by LC-MS/MS; type: ADME
T1 sequence (P11509 whole entry): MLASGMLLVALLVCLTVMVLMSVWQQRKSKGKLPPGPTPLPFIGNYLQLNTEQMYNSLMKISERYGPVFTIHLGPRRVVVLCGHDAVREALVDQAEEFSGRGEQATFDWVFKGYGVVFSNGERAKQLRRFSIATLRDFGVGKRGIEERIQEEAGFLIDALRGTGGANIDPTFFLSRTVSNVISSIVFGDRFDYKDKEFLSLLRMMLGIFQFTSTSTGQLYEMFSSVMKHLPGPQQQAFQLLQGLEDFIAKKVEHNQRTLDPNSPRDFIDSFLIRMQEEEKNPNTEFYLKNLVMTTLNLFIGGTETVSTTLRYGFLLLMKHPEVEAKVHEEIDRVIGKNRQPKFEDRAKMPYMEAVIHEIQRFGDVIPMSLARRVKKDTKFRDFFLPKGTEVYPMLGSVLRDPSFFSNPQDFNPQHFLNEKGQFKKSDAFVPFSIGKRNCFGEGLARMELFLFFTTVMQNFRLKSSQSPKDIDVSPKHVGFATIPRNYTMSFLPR

[6] = Apparent volume of distribution in male Sprague-Dawley rat at 10 mg/kg, iv administered as single dose by LC-MS analysis; type: ADME, organism-based; details: in vivo, read-out: Vz

CCOC(=O)c1c(C)nc(-c2cccc(C#N)c2)n1OCc1ccc(C#N)cc1
Drug metabolism [1]: Metabolite_Detected | bioavailability [2]: 32.4%

Cc1nc(-c2cccc(C#N)c2)n(OCc2ccc(C#N)cc2)c1C(=O)O
Stabilty [3]: Stable | inhibition at 10 µM [4]: < 50% | Stabilty [5]: Stable | IC50 (Cytochrome P450 2A6): > 10 µM | Vd [6]: 21.3 L/kg
